In publication PMC10866072, “Design, synthesis, molecular modelling and biological evaluation of novel 6-amino-5-cyano-2-thiopyrimidine derivatives as potent anticancer agents against leukemia and apoptotic inducers” (Journal of Enzyme Inhibition and Medicinal Chemistry, 2024):

What was measured:
[1] = test system: CCRF-CEM; type: cell-based; details: Homo sapiens, one dose 10^-5 M, 48 h
[2] = test system: HL-60(TB); type: cell-based; details: Homo sapiens, one dose 10^-5 M, 48 h
[3] = test system: K-562; type: cell-based; details: Homo sapiens, K562, one dose 10^-5 M, 48 h
[4] = test system: MOLT-4; type: cell-based; details: Homo sapiens, one dose 10^-5 M, 48 h, read-out: % growth
[5] = test system: RPMI-8226; type: cell-based; details: Homo sapiens, one dose 10^-5 M, 48 h
[6] = test system: SR; type: cell-based; details: Homo sapiens, one dose 10^-5 M, 48 h
[7] = test system: A549/ATCC; type: cell-based; details: Homo sapiens, one dose 10^-5 M, 48 h
[8] = test system: EKVX; type: cell-based; details: Homo sapiens, one dose 10^-5 M, 48 h
[9] = test system: HOP-62; type: cell-based; details: Homo sapiens, one dose 10^-5 M, 48 h
[10] = test system: HOP-92; type: cell-based; details: Homo sapiens, one dose 10^-5 M, 48 h
[11] = test system: NCI-H226; type: cell-based; details: Homo sapiens, one dose 10^-5 M, 48 h
[12] = test system: NCI-H23; type: cell-based; details: Homo sapiens, one dose 10^-5 M, 48 h, read-out: % growth
[13] = test system: NCI-H460; type: cell-based; details: Homo sapiens, one dose 10^-5 M, 48 h, read-out: % growth
[14] = test system: NCI-H522; type: cell-based; details: Homo sapiens, one dose 10^-5 M, 48 h
[15] = test system: COLO 205; type: cell-based; details: Homo sapiens, one dose 10^-5 M, 48 h
[16] = test system: HCT-116; type: cell-based; details: Homo sapiens, one dose 10^-5 M, 48 h, read-out: % growth
[17] = test system: HCT-15; type: cell-based; details: Homo sapiens, one dose 10^-5 M, 48 h, read-out: % growth
[18] = test system: HT29; type: cell-based; details: Homo sapiens, HT-29, one dose 10^-5 M, 48 h
[19] = test system: KM12; type: cell-based; details: Homo sapiens, one dose 10^-5 M, 48 h
[20] = test system: SW-620; type: cell-based; details: Homo sapiens, one dose 10^-5 M, 48 h
[21] = test system: SF-268; type: cell-based; details: Homo sapiens, one dose 10^-5 M, 48 h, read-out: % growth
[22] = test system: SF-295; type: cell-based; details: Homo sapiens, one dose 10^-5 M, 48 h
[23] = test system: SF-539; type: cell-based; details: Homo sapiens, one dose 10^-5 M, 48 h
[24] = test system: SNB-19; type: cell-based; details: Homo sapiens, one dose 10^-5 M, 48 h, read-out: % growth
[25] = test system: SNB-75; type: cell-based; details: Homo sapiens, one dose 10^-5 M, 48 h
[26] = test system: U251; type: cell-based; details: Homo sapiens, U-251, one dose 10^-5 M, 48 h
[27] = test system: LOX IMVI; type: cell-based; details: Homo sapiens, one dose 10^-5 M, 48 h, read-out: % growth
[28] = test system: MALME-3M; type: cell-based; details: Homo sapiens, one dose 10^-5 M, 48 h
[29] = test system: M14; type: cell-based; details: Homo sapiens, one dose 10^-5 M, 48 h
[30] = test system: MDA-MB-435; type: cell-based; details: Homo sapiens, one dose 10^-5 M, 48 h, read-out: % growth
[31] = test system: SK-MEL-2; type: cell-based; details: Homo sapiens, one dose 10^-5 M, 48 h
[32] = test system: SK-MEL-28; type: cell-based; details: Homo sapiens, one dose 10^-5 M, 48 h
[33] = test system: SK-MEL-5; type: cell-based; details: Homo sapiens, one dose 10^-5 M, 48 h, read-out: % growth
[34] = test system: UACC-257; type: cell-based; details: Homo sapiens, one dose 10^-5 M, 48 h
[35] = test system: UACC-62; type: cell-based; details: Homo sapiens, one dose 10^-5 M, 48 h
[36] = test system: IGROV1; type: cell-based; details: Homo sapiens, IGROV-1, one dose 10^-5 M, 48 h, read-out: % growth
[37] = test system: OVCAR-3; type: cell-based; details: Homo sapiens, one dose 10^-5 M, 48 h
[38] = test system: OVCAR-4; type: cell-based; details: Homo sapiens, one dose 10^-5 M, 48 h
[39] = test system: OVCAR-5; type: cell-based; details: Homo sapiens, one dose 10^-5 M, 48 h
[40] = test system: OVCAR-8; type: cell-based; details: Homo sapiens, one dose 10^-5 M, 48 h
[41] = test system: NCI/ADR-RES; type: cell-based; details: Homo sapiens, one dose 10^-5 M, 48 h
[42] = test system: SK-OV-3; type: cell-based; details: Homo sapiens, one dose 10^-5 M, 48 h
[43] = test system: 786-0; type: cell-based; details: Homo sapiens, one dose 10^-5 M, 48 h
[44] = test system: A498; type: cell-based; details: Homo sapiens, one dose 10^-5 M, 48 h
[45] = test system: ACHN; type: cell-based; details: Homo sapiens, one dose 10^-5 M, 48 h
[46] = test system: CAKI-1; type: cell-based; details: Homo sapiens, CAKI-1, 48 h, one dose 10^-5 M, 48 h
[47] = test system: SN12C; type: cell-based, human; details: Homo sapiens, one dose 10^-5 M, 48 h
[48] = test system: TK-10; type: cell-based; details: Homo sapiens, one dose 10^-5 M, 48 h
[49] = test system: UO-31; type: cell-based; details: Homo sapiens, UO-31, 48 h, one dose 10^-5 M, 48 h
[50] = test system: PC-3; type: cell-based; details: Homo sapiens, one dose 10^-5 M, 48 h
[51] = test system: DU-145; type: cell-based; details: Homo sapiens, one dose 10^-5 M, 48 h
[52] = test system: MCF7; type: cell-based; details: Homo sapiens, one dose 10^-5 M, 48 h, read-out: % growth
[53] = test system: MDA-MB-231/ATCC; type: cell-based; details: Homo sapiens, one dose 10^-5 M, 48 h
[54] = test system: HS 578T; type: cell-based; details: Homo sapiens; one dose 10^-5 M, 48 h; HS 578T; read-out: % growth
[55] = test system: BT-549; type: cell-based; details: Homo sapiens, one dose 10^-5 M, 48 h
[56] = test system: T-47D; type: cell-based; details: Homo sapiens, T47D, one dose 10^-5 M, 48 h, read-out: % growth
[57] = test system: MDA-MB-468; type: cell-based; details: Homo sapiens, one dose 10^-5 M, 48 h
[58] = test system: full NCI 60 cell lines panel; details: for activity at 10 µM: Homo sapiens, 60 cell, 48 h, read-out: Mean % growth; for activity on all 60 cancer cell lines tested (in words): one dose
[59] = test system: HCC-2998; type: cell-based; details: Homo sapiens, one dose 10^-5 M, 48 h
[60] = test system: RXF 393; type: cell-based; details: Homo sapiens, RXF 393, 48 h, one dose 10^-5 M, 48 h, read-out: % growth

CN(C)c1ccc(-c2cc([N+](=O)[O-])ccc2C=NNC(=N)c2cnc(S)nc2N)cc1 [Compound 4c, 4-amino-N'-[6-[4-(dimethylamino)phenyl]-(4-nitrophenyl)methylene]-2-mercapto pyrimidine-5-carboximidohydrazide]
% cell growth at 10 µM [1]: 84.4% | % growth at 10 µM [2]: 96.4% | % growth at 10 µM [3]: 104% | activity at 10 µM [4]: 109% | % growth at 10 µM [5]: 97% | percent cell growth at 10 µM [6]: 107% | % growth at 10 µM [7]: 104% | % cell growth at 10 µM [8]: 100% | % growth at 10 µM [9]: 102% | % growth at 10 µM [10]: 118% | % growth at 10 µM [11]: 112% | activity at 10 µM [12]: 104% | activity at 10 µM [13]: 108% | % growth at 10 µM [14]: 96% | % growth at 10 µM [15]: 127% | activity at 10 µM [16]: 106% | activity at 10 µM [17]: 98.5% | % growth at 10 µM [18]: 109% | % growth at 10 µM [19]: 100% | % growth at 10 µM [20]: 109% | activity at 10 µM [21]: 87.8% | % cell growth at 10 µM [22]: 92.4% | % growth at 10 µM [23]: 98.8% | activity at 10 µM [24]: 97.2% | % growth at 10 µM [25]: 100% | % growth at 10 µM [26]: 106% | activity at 10 µM [27]: 99.3% | % growth at 10 µM [28]: 108% | % growth at 10 µM [29]: 110% | activity at 10 µM [30]: 102% | % growth at 10 µM [31]: 114% | % cell growth at 10 µM [32]: 112% | activity at 10 µM [33]: 103% | percent cell growth at 10 µM [34]: 106% | % growth at 10 µM [35]: 100% | activity at 10 µM [36]: 102% | % growth at 10 µM [37]: 106% | % growth at 10 µM [38]: 101% | percent cell growth at 10 µM [39]: 110% | % growth of cells at 10 µM [40]: 95.8% | cell growth percent at 10 µM [41]: 102% | % growth at 10 µM [42]: 95.7% | % growth at 10 µM [43]: 95.7% | % growth at 10 µM [44]: 124% | % growth at 10 µM [45]: 103% | % growth at 10 µM [46]: 99.6% | % growth at 10 µM [47]: 99.5% | % cell growth at 10 µM [48]: 102% | % cell growth at 10 µM [49]: 75.4% | percent cell growth at 10 µM [50]: 94.1% | % growth at 10 µM [51]: 108% | activity at 10 µM [52]: 92% | % growth at 10 µM [53]: 111% | activity at 10 µM [54]: 95.2% | % cell growth at 10 µM [55]: 112% | activity at 10 µM [56]: 101% | percent cell growth at 10 µM [57]: 108% | activity at 10 µM [58]: 103% | activity on all 60 cancer cell lines tested (in words) [58]: weak activity

Nc1nc(S)nc(-c2ccc(Cl)cc2)c1-c1ncn[nH]1 [Compound 5b, 4-Amino-6–(4-chlorophenyl)-5-(1H-1,2,4-triazol-5-yl)pyrimidine-2-thiol]
% cell growth at 10 µM [1]: 97.9% | % growth at 10 µM [2]: 108% | % growth at 10 µM [3]: 103% | activity at 10 µM [4]: 108% | % growth at 10 µM [5]: 98.6% | percent cell growth at 10 µM [6]: 96.6% | % growth at 10 µM [7]: 110% | % cell growth at 10 µM [8]: 98% | % growth at 10 µM [9]: 88.6% | % growth at 10 µM [10]: 91.7% | % growth at 10 µM [11]: 92.7% | activity at 10 µM [12]: 97% | activity at 10 µM [13]: 110% | % growth at 10 µM [14]: 85.5% | % growth at 10 µM [59]: 94.8% | activity at 10 µM [16]: 92.1% | activity at 10 µM [17]: 103% | % growth at 10 µM [18]: 95.4% | % growth at 10 µM [19]: 102% | % growth at 10 µM [20]: 103% | activity at 10 µM [21]: 96.7% | % cell growth at 10 µM [22]: 93.7% | % growth at 10 µM [23]: 92.5% | activity at 10 µM [24]: 91% | % growth at 10 µM [25]: 78.7% | % growth at 10 µM [26]: 98.8% | activity at 10 µM [27]: 99.2% | % growth at 10 µM [28]: 92.6% | % growth at 10 µM [29]: 98.9% | activity at 10 µM [30]: 103% | % growth at 10 µM [31]: 108% | % cell growth at 10 µM [32]: 111% | activity at 10 µM [33]: 98.7% | percent cell growth at 10 µM [34]: 112% | % growth at 10 µM [35]: 95.9% | activity at 10 µM [36]: 98.7% | % growth at 10 µM [37]: 108% | % growth at 10 µM [38]: 112% | percent cell growth at 10 µM [39]: 96.7% | % growth of cells at 10 µM [40]: 94.8% | % growth at 10 µM [42]: 85.5% | % growth at 10 µM [43]: 108% | % growth at 10 µM [44]: 109% | % growth at 10 µM [45]: 96.9% | % growth at 10 µM [46]: 82.8% | activity at 10 µM [60]: 115% | % growth at 10 µM [47]: 93.5% | % cell growth at 10 µM [48]: 109% | % cell growth at 10 µM [49]: 74.6% | percent cell growth at 10 µM [50]: 85.5% | % growth at 10 µM [51]: 109% | activity at 10 µM [52]: 93.8% | % growth at 10 µM [53]: 93.7% | activity at 10 µM [54]: 111% | activity at 10 µM [56]: 86.4% | percent cell growth at 10 µM [57]: 101% | activity at 10 µM [58]: 98.4% | activity on all 60 cancer cell lines tested (in words) [58]: weak activity
